Data published in patent US10597388B2, “Pyridazinone herbicides” (FMC CORPORATION, priority 2014, dated 2020).

Tests used:
Test in all cases: Test D controlled growth environment herbicide test, pre- and postemergence
Format in all cases: in vivo
[1] = tested on: radish, wild (wild radish, Raphanus raphanistrum)
Summary of the method: (§1)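 Rating is visual, 0–100 scale (100 = complete control), made against untreated plants 14–21 d after treatment in controlled growth conditions. Postemergence sprays went onto 1- to 4-leaf plants in peat medium; preemergence sprays onto silt loam after sowing; formulation included a surfactant.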

[2] = tested on: lambsquarters (Chenopodium album)
Summary of the method: as §1

[3] = tested on: oat, wild (wild oat, Avena fatua)
Summary of the method: as §1

[4] = tested on: field violet (Viola arvensis)
Summary of the method: as §1

[5] = tested on: field poppy (Papaver rhoeas)
Summary of the method: as §1

[6] = tested on: barley, spring (spring barley, Hordeum vulgare)
Summary of the method: as §1

[7] = tested on: wheat, spring (spring wheat, Triticum aestivum)
Summary of the method: as §1

[8] = tested on: wheat, winter (winter wheat, Triticum aestivum)
Summary of the method: as §1

[9] = tested on: barley, winter (winter barley, Hordeum vulgare)
Summary of the method: as §1

[10] = tested on: chickweed (common chickweed, Stellaria media)
Summary of the method: as §1

[11] = tested on: canarygrass (Phalaris minor)
Summary of the method: as §1

[12] = tested on: bluegrass (annual bluegrass, Poa annua)
Summary of the method: as §1

[13] = tested on: Russian thistle (Salsola kali)
Summary of the method: as §1

[14] = Postemergence, 31 g ai/ha, scale 0 to 100 (0 no effect, 100 complete control)
[15] = Postemergence, 125 g ai/ha, visual rating on scale 0 (no effect) to 100 (complete control), 14 to 21 d
[16] = Postemergence, 250 g ai/ha, scale 0 to 100 (0 no effect, 100 complete control)
[17] = Preemergence, 125 g ai/ha, scale 0 to 100 (0 no effect, 100 complete control)
[18] = Preemergence, 250 g ai/ha, scale 0 to 100, 0 no effect, 100 complete control
[19] = postemergence, 62 g ai/ha, scale 0 to 100, 0 no effect, 100 complete control
[20] = Preemergence, 62 g ai/ha, scale 0 to 100 (0 no effect, 100 complete control)

CC(=O)Oc1c(C)nn(C)c(=O)c1-c1c(C)sc2ccc(Cl)cc12 [Compound 108]
Radish, Wild plant response rating [1, 14]: 75 | Plant response rating, Radish, Wild [1, 15]: 85 | Plant response rating, Radish, Wild [1, 16]: 90 | Plant response rating (scale of 0 to 100), Radish, Wild ([1]; Preemergence, 31 g ai/ha): 45 | Plant response rating (scale of 0 to 100), Radish, Wild ([1]; Preemergence, 62 g ai/ha): 100 | Plant response rating, Radish, Wild [1, 17]: 100 | Plant response rating, Radish, Wild [1, 18]: 90 | Plant response rating, Radish, Wild [1, 19]: 75 | Lambsquarters plant response rating [2, 14]: 90 | Plant response rating, Lambsquarters [2, 15]: 100 | Plant response rating, Lambsquarters [2, 16]: 100 | Plant response rating (scale of 0 to 100), Lambsquarters ([2]; Preemergence, 31 g ai/ha): 100 | Plant response rating (scale of 0 to 100), Lambsquarters ([2]; Preemergence, 62 g ai/ha): 100 | Plant response rating, Lambsquarters [2, 17]: 100 | Plant response rating, Lambsquarters [2, 18]: 100 | Plant response rating, Lambsquarters [2, 19]: 95 | Oat, Wild plant response rating [3, 14]: 85 | Plant response rating, Oat, Wild [3, 15]: 100 | Plant response rating, Oat, Wild [3, 16]: 100 | Plant response rating (scale of 0 to 100), Oat, Wild ([3]; Preemergence, 31 g ai/ha): 80 | Plant response rating (scale of 0 to 100), Oat, Wild ([3]; Preemergence, 62 g ai/ha): 80 | Plant response rating, Oat, Wild [3, 17]: 80 | Plant response rating, Oat, Wild [3, 18]: 95 | Plant response rating, Oat, Wild [3, 19]: 95 | Field Violet plant response rating [4, 14]: 90 | Plant response rating, Field Violet [4, 15]: 100 | Plant response rating, Field Violet [4, 16]: 100 | Plant response rating (scale of 0 to 100), Field Violet ([4]; Preemergence, 31 g ai/ha): 90 | Plant response rating (scale of 0 to 100), Field Violet ([4]; Preemergence, 62 g ai/ha): 100 | Plant response rating, Field Violet [4, 17]: 100 | Plant response rating, Field Violet [4, 18]: 100 | Plant response rating, Field Violet [4, 19]: 95 | Field Poppy plant response rating [5, 14]: 20 | Plant response rating, Field Poppy [5, 15]: 65 | Plant response rating, Field Poppy [5, 16]: 75 | Plant response rating (scale of 0 to 100), Field Poppy ([5]; Preemergence, 31 g ai/ha): 10 | Plant response rating (scale of 0 to 100), Field Poppy ([5]; Preemergence, 62 g ai/ha): 10 | Plant response rating, Field Poppy [5, 17]: 100 | Plant response rating, Field Poppy [5, 18]: 100 | Plant response rating, Field Poppy [5, 19]: 55 | Barley, Spring plant response rating [6, 14]: 0 | Plant response rating, Barley, Spring [6, 15]: 15 | Plant response rating, Barley, Spring [6, 16]: 20 | Plant response rating (scale of 0 to 100), Barley, Spring ([6]; Preemergence, 31 g ai/ha): 0 | Plant response rating, Barley, Spring [6, 20]: 0 | Plant response rating, Barley, Spring [6, 17]: 0 | Plant response rating, Barley, Spring [6, 18]: 0 | Plant response rating, Barley, Spring [6, 19]: 10 | Wheat, Spring plant response rating [7, 14]: 15 | Plant response rating, Wheat, Spring [7, 15]: 20 | Plant response rating, Wheat, Spring [7, 16]: 30 | Plant response rating (scale of 0 to 100), Wheat, Spring ([7]; Preemergence, 31 g ai/ha): 0 | Plant response rating (scale of 0 to 100), Wheat, Spring ([7]; Preemergence, 62 g ai/ha): 20 | Plant response rating, Wheat, Spring [7, 17]: 25 | Plant response rating, Wheat, Spring [7, 18]: 40 | Plant response rating, Wheat, Spring [7, 19]: 20 | Wheat, Winter plant response rating [8, 14]: 10 | Plant response rating, Wheat, Winter [8, 15]: 20 | Plant response rating, Wheat, Winter [8, 16]: 20 | Plant response rating (scale of 0 to 100), Wheat, Winter ([8]; Preemergence, 31 g ai/ha): 0 | Plant response rating (scale of 0 to 100), Wheat, Winter ([8]; Preemergence, 62 g ai/ha): 0 | Plant response rating, Wheat, Winter [8, 17]: 10 | Plant response rating, Wheat, Winter [8, 18]: 30 | Plant response rating, Wheat, Winter [8, 19]: 15 | Barley, Winter plant response rating [9, 14]: 5 | Plant response rating, Barley, Winter [9, 15]: 10 | Plant response rating, Barley, Winter [9, 16]: 15 | Plant response rating (scale of 0 to 100), Barley, Winter ([9]; Preemergence, 31 g ai/ha): 0 | Plant response rating, Barley, Winter [9, 20]: 0 | Plant response rating, Barley, Winter [9, 17]: 10 | Plant response rating, Barley, Winter [9, 18]: 20 | Plant response rating, Barley, Winter [9, 19]: 5 | Chickweed plant response rating [10, 14]: 90 | Plant response rating, Chickweed [10, 15]: 100 | Plant response rating, Chickweed [10, 16]: 100 | Plant response rating (scale of 0 to 100), Chickweed ([10]; Preemergence, 31 g ai/ha): 100 | Plant response rating (scale of 0 to 100), Chickweed ([10]; Preemergence, 62 g ai/ha): 100 | Plant response rating, Chickweed [10, 17]: 100 | Plant response rating, Chickweed [10, 18]: 100 | Plant response rating, Chickweed [10, 19]: 100 | Canarygrass plant response rating [11, 14]: 40 | Plant response rating, Canarygrass [11, 15]: 80 | Plant response rating, Canarygrass [11, 16]: 80 | Plant response rating (scale of 0 to 100), Canarygrass ([11]; Preemergence, 31 g ai/ha): 45 | Plant response rating (scale of 0 to 100), Canarygrass ([11]; Preemergence, 62 g ai/ha): 80 | Plant response rating, Canarygrass [11, 17]: 90 | Plant response rating, Canarygrass [11, 18]: 95 | Plant response rating, Canarygrass [11, 19]: 50 | Bluegrass plant response rating [12, 14]: 5 | Plant response rating, Bluegrass [12, 15]: 25 | Plant response rating, Bluegrass [12, 16]: 35 | Plant response rating (scale of 0 to 100), Bluegrass ([12]; Preemergence, 31 g ai/ha): 10 | Plant response rating, Bluegrass [12, 20]: 15 | Plant response rating, Bluegrass [12, 17]: 35 | Plant response rating, Bluegrass [12, 18]: 75 | Plant response rating, Bluegrass [12, 19]: 10 | Russian Thistle plant response rating [13, 14]: 65 | Plant response rating, Russian Thistle [13, 15]: 75 | Plant response rating, Russian Thistle [13, 16]: 90 | Plant response rating (scale of 0 to 100), Russian Thistle ([13]; Preemergence, 31 g ai/ha): 0 | Plant response rating (scale of 0 to 100), Russian Thistle ([13]; Preemergence, 62 g ai/ha): 15 | Plant response rating, Russian Thistle [13, 17]: 70 | Plant response rating, Russian Thistle [13, 18]: 100 | Plant response rating, Russian Thistle [13, 19]: 70
